Measured values published in ChEMBL document CHEMBL1141311, “Bioactive secondary metabolites from Boesenbergia pandurata of Myanmar and their preferential cytotoxicity against human pancreatic cancer PANC-1 cell line in nutrient-deprived medium” (2007).

System: PANC-1
Assay: Cytotoxicity against human PANC1 cells assessed as cell viability
Format: functional

Compound	PC100 [µM]
COc1cc(O)c(C(=O)/C=C/c2ccc(O)cc2)c(OC)c1 [FLAVOKAWAIN C]	>256
CC(C)=CCC/C(C)=C/COC(=O)c1c(O)cc(O)cc1CCc1ccccc1	16
COc1cc(O)cc(O)c1C(=O)[C@@H]1CC=C(C)[C@@H](CC=C(C)C)[C@H]1c1ccccc1 (racemic)	8
COc1cc(O)cc2c1C(=O)C[C@@H](c1ccccc1)O2	>256
COc1cc(O)c(C(=O)[C@@H]2[C@H](CC=C(C)C)C(C)=CC[C@H]2c2ccccc2)c(OC)c1 (racemic)	64
O=C1C[C@@H](c2ccccc2)Oc2cc(O)cc(O)c21 [PINOCEMBRIN]	64
COc1cc2c(c(O)c1C(=O)/C=C/c1ccccc1)C=CC(C)(CCC=C(C)C)O2 (stereo unspecified) [BOESENBERGIN B]	64
COc1cc(O)c(C(=O)[C@@H]2[C@H](CC=C(C)C)C(C)=CC[C@H]2c2ccccc2)c(O)c1 [PANDURATIN A]	2.5
CC(=O)O[C@H]1C(=O)[C@@]2(C)[C@H]([C@H](OC(=O)c3ccccc3)[C@]3(O)C[C@H](OC(=O)[C@H](O)[C@@H](NC(=O)c4ccccc4)c4ccccc4)C(C)=C1C3(C)C)[C@]1(OC(C)=O)CO[C@@H]1C[C@@H]2O [PACLITAXEL]	>256
CC(C)=CCCC1(C)C=Cc2c(cc3c(c2O)C(=O)C[C@@H](c2ccccc2)O3)O1 (stereo partly specified)	64
COc1cc(O)cc(O)c1C(=O)[C@@H]1[C@H](CC=C(C)C)C(C)=CC[C@H]1c1ccc(O)cc1 (racemic)	>256
COc1cc(O)cc2c1C(=O)C[C@@H](c1ccc(O)cc1)O2	>256
COc1cc(O)cc(O)c1C(=O)/C=C/c1ccccc1 [CARDAMOMIN]	>256
COc1cc2c(c(O)c1C/C=C(\C)CCC=C(C)C)C(=O)C[C@@H](c1ccccc1)O2	128
COc1cc(/C=C/c2ccccc2)oc(=O)c1 [DESMETHOXYYANGONIN]	>256
COc1cc(O)cc(O)c1C(=O)[C@@H]1[C@H](CC=C(C)C)C(C)=CC[C@H]1c1ccccc1	16
COc1cc(C[C@H]2C(=O)OC[C@@H]2Cc2ccc(OC)c(OC)c2)ccc1O [ARCTIGENIN]	1
COc1cc(O)c(C(=O)[C@@H]2CC=C(C)[C@@H](CC=C(C)C)[C@H]2c2ccccc2)c(O)c1 [(-)-NICOLAIOIDESIN B]	2.5
COc1cc(O)c2c(c1)O[C@H](c1ccccc1)CC2=O [PINOSTROBIN]	>256
CC(C)=CCC/C(C)=C/Cc1c(O)cc2c(c1O)C(=O)C[C@@H](c1ccccc1)O2	8
COc1cc(O)c2c(=O)cc(-c3ccccc3)oc2c1 [TECHTOCHRYSIN]	>256
CC(C)=CC[C@@H]1C(C)=CC[C@@H](c2ccccc2)[C@@H]1C(=O)c1c(O)cc(O)cc1O [4-HYDROXYPANDURATIN A]	16
COc1cc(O)c(C/C=C(\C)CCC=C(C)C)c(O)c1C(=O)/C=C/c1ccccc1	16
COc1cc(O)c2c(c1C/C=C(\C)CCC=C(C)C)O[C@@H](c1ccccc1)CC2=O	128
CC(C)=CC[C@@H]1C(C)=CC[C@@H](C(=O)c2c(O)cc(O)cc2O)[C@@H]1c1ccccc1	16
COc1cc(O)c(C(=O)/C=C/c2ccccc2)c2c1C=CC(C)(CCC=C(C)C)O2 (stereo unspecified) [BOESENBERGIN A]	64
